A word on the IC50: it is the concentration at which inhibition is half-maximal.

Molecules are shown by their SMILES.

For the first experiment, the target named is Recombinant human Factor B catalytic domain (Homo sapiens (Human), UniProt P00751). As to the kind of experiment: Factor B binding assay by TR-FRET. The note with it: Factor B TR-FRET IC50 (nM), 10 nM his-tagged Factor B catalytic domain, 100 nM tracer, 1 h. In general terms: TR-FRET usually uses a lanthanide donor and a delayed reading to cut background.
Sequence of Recombinant human Factor B catalytic domain (P00751 470-764): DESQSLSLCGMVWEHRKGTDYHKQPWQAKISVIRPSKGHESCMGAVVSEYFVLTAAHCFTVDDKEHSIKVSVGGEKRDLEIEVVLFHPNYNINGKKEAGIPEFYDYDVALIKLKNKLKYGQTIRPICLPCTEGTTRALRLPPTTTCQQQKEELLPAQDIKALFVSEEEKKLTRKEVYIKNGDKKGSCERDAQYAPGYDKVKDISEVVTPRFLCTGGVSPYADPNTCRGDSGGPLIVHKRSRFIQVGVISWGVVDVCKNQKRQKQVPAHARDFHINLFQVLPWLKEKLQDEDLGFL
Procedure: • 1. […] 5× Kinase Buffer A (Thermo Fisher, CAT #PV3189) • 3. LANCE Eu-W1024 Anti-6×His Antibody (PerkinElmer, CAT #AD0401) • 4.
DMSO (Thermo Fisher Scientific) • 6. Compounds—10 mM stock in DMSO • 7. Victor Nivo multimode plate reader (PerkinElmer) • 8.
Factor B binding affinity of each compound tested was determined using a time-resolved fluorescence resonance energy transfer (TR-FRET) technology. 10 nM recombinant his-tagged Factor B catalytic domain, varying concentrations of inhibitors, 4 nM LANCE Eu-W1024 Anti-6×His Antibody and 100 nM TR-FRET_tool2 tracer was incubated in 1× Kinase Buffer A for 1 h. Measurement was performed in a reaction volume of 15 μL by adding 5 μL of the test compound, 5 μL of Factor B/antibody mixture and 5 μL of tracer into white opaque 384-well assay plates.
Take `Cc1cc(C)c2[nH]ccc2c1CN1CCC(CCCO)=CC1c1ccc(C(=O)O)cc1` (single isomer, unassigned) [2 (Isomer 2), 4-(1-((5,7-dimethyl-1H-indol-4-yl)methyl)-4-(3-hydroxypropyl)-1,2,5,6-tetrahydropyridin-2-yl)benzoic acid]: the IC50 amounted to 360 nM.

Consider `Cc1cc(C)c2[nH]ccc2c1CN1CCC2(CCCO2)CC1c1ccc(C(=O)O)cc1` (single isomer, unassigned) [2 (Isomer 3), 4-(8-((5,7-dimethyl-1H-indol-4-yl)methyl)-1-oxa-8-azaspiro[4.5]decan-7-yl)benzoic acid], for which the half-inhibitory concentration (IC50) amounted to 507 nM.

Take `Cc1cc(C)c2[nH]ccc2c1CN1CCC2(CCCO2)CC1c1ccc(C(=O)O)cc1` (single isomer, unassigned) [2 (Isomer 6), 4-(8-((5,7-dimethyl-1H-indol-4-yl)methyl)-1-oxa-8-azaspiro[4.5]decan-7-yl)benzoic acid]: the IC50 is 60 nM.

Take `Cc1cc(C)c2[nH]ccc2c1CN1CCC(C(F)F)CC1c1ccc(C(=O)O)cc1` (single isomer, unassigned) [6 (Isomer 2), 4-(4-(difluoromethyl)-1-((5,7-dimethyl-1H-indol-4-yl)methyl)piperidin-2-yl)benzoic acid]: the IC50 was determined as 142 nM.

`Cc1cc(C)c2[nH]ccc2c1CN1CCC(CF)CC1c1ccc(C(=O)O)cc1` (single isomer, unassigned) [7 (Isomer 1), 4-(1-((5,7-dimethyl-1H-indol-4-yl)methyl)-4-(fluoromethyl)piperidin-2-yl)benzoic acid]: the half-maximal inhibitory concentration (IC50) turned out to be 313 nM.

As for `Cc1cc(C)c2[nH]ccc2c1CN1CCC(CF)CC1c1ccc(C(=O)O)cc1` (single isomer, unassigned) [7 (Isomer 2), 4-(1-((5,7-dimethyl-1H-indol-4-yl)methyl)-4-(fluoromethyl)piperidin-2-yl)benzoic acid], the IC50 was 157 nM.

With `COc1cc(C)c2[nH]ccc2c1CN1CCC2(CC1c1ccc(C(=O)O)cc1)CC2(F)F` (single isomer, unassigned) [8 (Isomer 2), 4-(1,1-difluoro-6-((5-methoxy-7-methyl-1H-indol-4-yl)methyl)-6-azaspiro[2.5]octan-5-yl)benzoic acid], the IC50 is 245 nM.

As to `Cc1cc(C)c2[nH]ccc2c1CN1C[C@@H]2CCCC2C1c1ccc(C(=O)O)cc1` (single isomer, unassigned) [9 (Isomer 2), 4-(2-((5,7-dimethyl-1H-indol-4-yl)methyl)octahydrocyclopenta[c]pyrrol-1-yl)benzoic acid], the IC50 was determined as 40.6 nM.

As for `COc1cc(C)c2[nH]ccc2c1CN1CC2CCCC2C1c1ccc(C(=O)O)cc1` (single isomer, unassigned) [13 (Isomer 1), 4-(2-((5-methoxy-7-methyl-1H-indol-4-yl)methyl)octahydrocyclopenta[c]pyrrol-1-yl)benzoic acid], the IC50 turned out to be 17.4 nM.

Consider `COc1cc(C)c2[nH]ccc2c1CN1CCC2(CCC1c1ccc(C(=O)O)cc1)CC2(F)F` (single isomer, unassigned) [24 (Isomer 1), 4-(1,1-difluoro-6-((5-methoxy-7-methyl-1H-indol-4-yl)methyl)-6-azaspiro[2.6]nonan-7-yl)benzoic acid], for which the IC50 was 1410 nM.

Regarding `COc1cc(C)c2[nH]ccc2c1CN1CCC2(CCC1c1ccc(C(=O)O)cc1)CC2(F)F` (single isomer, unassigned) [24 (Isomer 2), 4-(1,1-difluoro-6-((5-methoxy-7-methyl-1H-indol-4-yl)methyl)-6-azaspiro[2.6]nonan-7-yl)benzoic acid], the IC50 came to 729 nM.

As for `COc1cc(C)c2[nH]ccc2c1CN1CCCCC1c1ccc(C(=O)O)cc1C(F)F` (single isomer, unassigned) [26 (Isomer 1), 3-(difluoromethyl)-4-(1-((5-methoxy-7-methyl-1H-indol-4-yl)methyl)piperidin-2-yl)benzoic acid], the IC50 came out at 31.5 nM.

As to `COc1cc(C)c2[nH]ccc2c1CN1CC2(CCOC2)CC1c1ccc(C(=O)O)cc1` (single isomer, unassigned) [28 (Isomer 2), 4-(7-((5-methoxy-7-methyl-1H-indol-4-yl)methyl)-2-oxa-7-azaspiro[4.4]nonan-8-yl)benzoic acid], the IC50 was determined as 81.5 nM.

Consider `COc1cc(C)c2[nH]ccc2c1CN1CC2CC3(CC3)CC2C1c1ccc(C(=O)O)cc1` (single isomer, unassigned) [29 (Isomer 2), 4-(2-((5-methoxy-7-methyl-1H-indol-4-yl)methyl)hexahydro-1H-spiro[cyclopenta[c]pyrrole-5,1′-cyclopropan]-1-yl)benzoic acid], for which the IC50 came out at 43.7 nM.

For `Cc1cc(C2CC2)c(CN2CC3CCCC3C2c2ccc(C(=O)O)cc2)c2cc[nH]c12` (single isomer, unassigned) [32 (Isomer 1), 4-(2-((5-cyclopropyl-7-methyl-1H-indol-4-yl)methyl)octahydrocyclopenta[c]pyrrol-1-yl)benzoic acid], the IC50 was 26.3 nM.

For `COc1cc(C)c2[nH]ccc2c1CN1C[C@@H]2CC(C)(C)C[C@@H]2C1c1ccc(C(=O)O)cc1` (single isomer, unassigned) [34 (Isomer 1)], the IC50 was determined as 7.7 nM.

For the compound `COc1cc(C)c2[nH]ccc2c1CN1C[C@@H]2CC(C)(C)C[C@@H]2C1c1ccc(C(=O)O)cc1` (single isomer, unassigned) [34 (Isomer 2)], the IC50 was determined as 180 nM.

Consider `COc1cc(C)c2[nH]ccc2c1CN1CCC2(CCOC2)CC1c1ccc(C(=O)O)cc1` (single isomer, unassigned) [36 (Isomer 2), 4-(8-((5-methoxy-7-methyl-1H-indol-4-yl)methyl)-2-oxa-8-azaspiro[4.5]decan-7-yl)benzoic acid], for which the IC50 was 16.6 nM.

Turning to `COc1cc(C)c2[nH]ccc2c1CN1CCC2(CCOC2)CC1c1ccc(C(=O)O)cc1` (single isomer, unassigned) [36 (Isomer 3), 4-(8-((5-methoxy-7-methyl-1H-indol-4-yl)methyl)-2-oxa-8-azaspiro[4.5]decan-7-yl)benzoic acid], the IC50 was 125 nM.

`COc1cc(C)c2[nH]ccc2c1C(C)N1CC2CCCC2C1c1ccc(C(=O)O)cc1` (single isomer, unassigned) [37 (Isomer 1), 4-(2-(1-(5-methoxy-7-methyl-1H-indol-4-yl)ethyl)octahydrocyclopenta[c]pyrrol-1-yl)benzoic acid]: the IC50 worked out at 322 nM.

Turning to `COc1cc(C)c2[nH]ccc2c1C(C)N1CC2CCCC2C1c1ccc(C(=O)O)cc1` (single isomer, unassigned) [37 (Isomer 3), 4-(2-(1-(5-methoxy-7-methyl-1H-indol-4-yl)ethyl)octahydrocyclopenta[c]pyrrol-1-yl)benzoic acid], the IC50 worked out at 222 nM.

Turning to `COc1cc(C)c2[nH]ccc2c1C(C)N1CC2CCCC2C1c1ccc(C(=O)O)cc1` (single isomer, unassigned) [37 (Isomer 4), 4-(2-(1-(5-methoxy-7-methyl-1H-indol-4-yl)ethyl)octahydrocyclopenta[c]pyrrol-1-yl)benzoic acid], the IC50 came to 359 nM.

With `COc1cc(C)c2[nH]ccc2c1CN1CCC2(CCO2)CC1c1ccc(C(=O)O)cc1` (single isomer, unassigned) [38 (Isomer 4), 4-(7-((5-methoxy-7-methyl-1H-indol-4-yl)methyl)-1-oxa-7-azaspiro[3.5]nonan-6-yl)benzoic acid], the IC50 came to 4.8 nM.

Regarding `COc1cc(C)c2[nH]ccc2c1CN1CC2CC(C(F)F)CC2C1c1ccc(C(=O)O)cc1` (single isomer, unassigned) [39 (Isomer 1), 4-(5-(difluoromethyl)-2-((5-methoxy-7-methyl-1H-indol-4-yl)methyl)octahydrocyclopenta[c]pyrrol-1-yl)benzoic acid], the IC50 was 2.6 nM.

Turning to `COc1cc(C)c2[nH]ccc2c1CN1CC2CC(C(F)F)CC2C1c1ccc(C(=O)O)cc1` (single isomer, unassigned) [39 (Isomer 2), 4-(5-(difluoromethyl)-2-((5-methoxy-7-methyl-1H-indol-4-yl)methyl)octahydrocyclopenta[c]pyrrol-1-yl)benzoic acid], the IC50 is 4.1 nM.

With `COc1cc(C)c2[nH]ccc2c1CN1CC2CC(C(F)F)CC2C1c1ccc(C(=O)O)cc1` (single isomer, unassigned) [39 (Isomer 3), 4-(5-(difluoromethyl)-2-((5-methoxy-7-methyl-1H-indol-4-yl)methyl)octahydrocyclopenta[c]pyrrol-1-yl)benzoic acid], the IC50 was 7.3 nM.

For `COc1cc(C)c2[nH]ccc2c1CN1CCC2(CC1c1ccc(C(=O)O)cc1)CC(C)(F)C2` (single isomer, unassigned) [42 (Isomer 1), 4-(2-fluoro-7-((5-methoxy-7-methyl-1H-indol-4-yl)methyl)-2-methyl-7-azaspiro[3.5]nonan-6-yl)benzoic acid], the IC50 was 4 nM.

The experiment is the same for the next values; noted with them: read-out: Factor B TR-FRET IC50; 10 nM his-tagged Factor B catalytic domain, 100 nM tracer, 1 h.
Turning to `Cc1cc(C)c2[nH]ccc2c1CN1CCC2(C[C@H]1c1ccc(C(=O)O)cc1)CC(F)(F)C2` (single isomer, unassigned) [76 (Isomer 1)], the IC50 is under 2 nM.

`Cc1cc(Br)c(CN2CCC3(C[C@H]2c2ccc(C(=O)O)cc2)CC(F)(F)C3)c2cc[nH]c12` (single isomer, unassigned) [78 (Isomer 1)]: the IC50 amounted to 7.4 nM.

As to `Cc1cc(C)c2[nH]ccc2c1CN1C[C@@H]2CCCCC2C1c1ccc(C(=O)O)cc1` (stereo in doubt) [Example 10, 4-(2-((5,7-dimethyl-1H-indol-4-yl)methyl)octahydro-1H-isoindol-1-yl)benzoic acid], the IC50 is 265 nM.

`Cc1cc(C)c2[nH]ccc2c1CN1CC2CC2C1c1ccc(C(=O)O)cc1` (centres unmarked) [Example 1, 4-(3-((5,7-dimethyl-1H-indol-4-yl)methyl)-3-azabicyclo[3.1.0]hexan-2-yl)benzoic acid]: the IC50 came out at 923 nM.

Take `Cc1cc(C)c2[nH]ccc2c1CN1CCC(CCO)=CC1c1ccc(C(=O)O)cc1` (centres unmarked) [Example 4, 4-(1-((5,7-dimethyl-1H-indol-4-yl)methyl)-4-(2-hydroxyethyl)-1,2,5,6-tetrahydropyridin-2-yl)benzoic acid]: the IC50 came to 173 nM.
